Measurements reported in PubChem BioAssay (NCI).
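Step 1: Grow cells in 96-well plates. Step 2: Expose to compound for 48 hours at 5 concentrations. Step 3: Interpolate endpoints linearly; if unreached, use highest concentration. The concentration for full growth arrest is given as TGI.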

Experiments:
Experiment in all cases: growth of human tumour cells (NCI), 48 h
SK-MEL-2 melanoma = tested on: SK-MEL-2 melanoma
SN12C renal = tested on: SN12C renal
UACC-257 melanoma = tested on: UACC-257 melanoma
HCT-15 colon = tested on: HCT-15 colon
MDA-MB-435 = tested on: MDA-MB-435
EKVX NSCLC = tested on: EKVX NSCLC
SR leukemia = tested on: SR leukemia
T-47D breast = tested on: T-47D breast
ACHN renal = tested on: ACHN renal
NCI-H522 lung = tested on: NCI-H522 lung
DU-145 prostate = tested on: DU-145 prostate
U251 CNS = tested on: U251 CNS
UO-31 renal = tested on: UO-31 renal
OVCAR-3 ovarian = tested on: OVCAR-3 ovarian
SF-295 CNS = tested on: SF-295 CNS
KM12 colon = tested on: KM12 colon
COLO 205 colon = tested on: COLO 205 colon
MDA-MB-231 breast = tested on: MDA-MB-231 breast
HL-60(TB) leukemia = tested on: HL-60(TB) leukemia
HOP-62 NSCLC = tested on: HOP-62 NSCLC
MALME-3M melanoma = tested on: MALME-3M melanoma
OVCAR-8 ovarian = tested on: OVCAR-8 ovarian
NCI-H23 lung = tested on: NCI-H23 lung
MDA-N = tested on: MDA-N
NCI/ADR-RES ovarian = tested on: NCI/ADR-RES ovarian
HOP-92 NSCLC = tested on: HOP-92 NSCLC
786-0 renal = tested on: 786-0 renal
IGROV1 ovarian = tested on: IGROV1 ovarian
SNB-19 CNS = tested on: SNB-19 CNS
PC-3 prostate = tested on: PC-3 prostate
K-562 leukemia = tested on: K-562 leukemia
SK-MEL-5 melanoma = tested on: SK-MEL-5 melanoma
HCT-116 colon = tested on: HCT-116 colon
UACC-62 melanoma = tested on: UACC-62 melanoma
SNB-75 CNS = tested on: SNB-75 CNS
SK-MEL-28 melanoma = tested on: SK-MEL-28 melanoma
HT29 colon = tested on: HT29 colon
HCC-2998 colon = tested on: HCC-2998 colon
SF-268 CNS = tested on: SF-268 CNS
SK-OV-3 ovarian = tested on: SK-OV-3 ovarian
RPMI-8226 leukemia = tested on: RPMI-8226 leukemia
HS 578T breast = tested on: HS 578T breast
BT-549 breast = tested on: BT-549 breast
CCRF-CEM leukemia = tested on: CCRF-CEM leukemia
SF-539 CNS = tested on: SF-539 CNS
OVCAR-5 ovarian = tested on: OVCAR-5 ovarian
A549 NSCLC = tested on: A549 NSCLC
LOX IMVI melanoma = tested on: LOX IMVI melanoma
SW-620 colon = tested on: SW-620 colon
M14 melanoma = tested on: M14 melanoma
NCI-H226 lung = tested on: NCI-H226 lung
CAKI-1 renal = tested on: CAKI-1 renal
A498 renal = tested on: A498 renal
NCI-H460 lung = tested on: NCI-H460 lung
RXF 393 renal = tested on: RXF 393 renal
MOLT-4 leukemia = tested on: MOLT-4 leukemia
MCF7 breast = tested on: MCF7 breast
OVCAR-4 ovarian = tested on: OVCAR-4 ovarian

Measured: TGI

CC(NC(=O)/C(=C/c1ccccc1)NC(=O)c1ccccc1)C(=O)O (stereo unspecified)
99.5 µM: NCI-H226 lung
96.6 µM: SF-539 CNS
not listed: OVCAR-4 ovarian
> 100 µM: all other assays above

CC(C)C1=CC(=O)C(C)(C2C(O)CC3(C)C4CC=C5C(CCC(OC6OC(CO)C(O)C(O)C6OC6OC(C)C(O)C(O)C6O)C5(C)C)C4(C)C(=O)CC23C)O1 (stereo unspecified)
not listed: SK-MEL-2 melanoma | SR leukemia | HL-60(TB) leukemia | LOX IMVI melanoma
> 100 µM: all other assays above
